Experimental data from patent publication US4325951A, “1-Oxadethiacephalosporin derivatives and antibacterial use thereof” (Meiji Seika Kaisha, Ltd., priority 1979, dated 1982).
Converted amounts (≈) assume the structure as drawn. Counter-ions that a name gives are not always drawn. Like-named read-outs stand apart in the source and are kept apart here.

Experiments:
[1] = tested on: Escherichia coli No. 29; assay: Minimum Inhibitory Concentration "in vitro" (Table 1); assay type: cell-based
[2] = tested on: Escherichia coli GN; assay: as above; assay type: cell-based
[3] = tested on: E. coli W 3630 RGN 823; assay: microbe, parasite or virus in culture; assay type: cell-based; details: Escherichia coli, W3630RGN823, 20 h
[4] = tested on: Citro freundii GN 346/16; assay: antibacterial spectrum, MIC (Table 2); assay type: cell-based; details: nutrient agar, 37° C., 20 hours
[5] = tested on: Ps. aeruginosa MB-3829; assay: antibacterial spectrum, MIC (Table 2); assay type: cell-based; details: Pseudomonas aeruginosa
[6] = tested on: Kleb. pneumoniae GN 69; assay: antibacterial spectrum, MIC (Table 2); assay type: cell-based; details: Klebsiella pneumoniae, GN69, nutrient agar, 37° C., 20 hours
[7] = tested on: B. subtilis ATCC 6633; assay: antibacterial spectrum, MIC (Table 2); assay type: cell-based; details: Bacillus subtilis, ATCC6633, nutrient agar, 37° C., 20 hours
[8] = tested on: Sta. aureus Smith (I); assay: antibacterial spectrum, MIC (Table 2); assay type: cell-based; details: Staphylococcus aureus, nutrient agar, 37° C., 20 hours
[9] = tested on: Ps. cepacia M-0527; assay: antibacterial spectrum, MIC (Table 2); assay type: cell-based; details: Burkholderia cepacia, M0527, nutrient agar, 37° C., 20 hours
[10] = tested on: Shigella dysenteriae Shigae; assay: microbe, parasite or virus in culture; assay type: cell-based; details: 20 h
[11] = tested on: Pro. mirabilis GN 79; assay: antibacterial spectrum, MIC (Table 2); assay type: cell-based; details: Proteus mirabilis, GN79, nutrient agar, 37° C., 20 hours
[12] = tested on: E. coli ML 1410; assay: antibacterial spectrum, MIC (Table 2); assay type: cell-based; details: Escherichia coli, ML1410, nutrient agar, 37° C., 20 hours
[13] = tested on: Sal. typhimurium LT-2; assay: antibacterial spectrum, MIC (Table 2); assay type: cell-based; details: Salmonella enterica, nutrient agar, 37° C., 20 hours
[14] = tested on: Pro. vulgaris GN 76; assay: antibacterial spectrum, MIC (Table 2); assay type: cell-based; details: Proteus vulgaris, GN76, nutrient agar, 37° C., 20 hours
[15] = tested on: Escherichia coli No. 29; assay: therapeutic treatment of bacterial infection in mice, ED50; assay type: in vivo; details: male ICR mice; E. coli No. 29 intraperitoneally, 2.0×10^7 cells per mouse; subcutaneous injection 30 minutes after inoculation
Description: Thirty minutes after the inoculation, the mice were each treated by subcutaneous injection of 0.2 ml of a solution of the test compound in physiological saline. In this way, the ED50 value of the test compounds was determined. Cefoxitin and the 6059-S Compound (di-Na salt) were also tested in the same manner as above, for the comparison purpose.

[16] = tested on: Pro. morganii 1510; assay: antibacterial spectrum, MIC (Table 2); assay type: cell-based; details: Morganella morganii, nutrient agar, 37° C., 20 hours
[17] = tested on: E. coli W 3630 RGN 238; assay: microbe, parasite or virus in culture; assay type: cell-based; details: Escherichia coli, W3630RGN238, 20 h
[18] = tested on: Sta. aureus 209P JC-1; assay: antibacterial spectrum, MIC (Table 2); assay type: cell-based; details: Staphylococcus aureus, nutrient agar, 37° C., 20 hours

| Structure (SMILES) | MIC [1] | MIC [2] | MIC [3] | MIC [4] | MIC ([5]; MB3829, 20 h) | MIC [6] | MIC [7] | MIC [8] | MIC [9] | MIC [10] | MIC [11] | MIC [12] | MIC [13] | MIC [14] | ED50 value [15] | MIC [16] | MIC [17] | MIC [18] | MIC ([5]; MB3829, Ps. aeruginosa MB-3829, nutrient agar, 37° C., 20 hours, read-out: MIC) |
| --- | --- | --- | --- | --- | --- | --- | --- | --- | --- | --- | --- | --- | --- | --- | --- | --- | --- | --- | --- |
| CO[C@@]1(NC(=O)CSC[C@@H](N)C(=O)O)C(=O)N2C(C(=O)[O-])=C(C[n+]3ccc(C(N)=O)cc3)CO[C@@H]21 [Example 3, 7β-[(2D-2-Amino-2-carboxy)ethylthioacetoamido]-7α-methoxy-3-[(4-carbamoylpyridinium)methyl]-1-oxadethia-3-cephem-4-carboxylic acid] | 0.78 µg/mL (≈ 1.53 µM) | 0.78 µg/mL (≈ 1.53 µM) |  |  |  |  |  |  |  |  |  |  |  |  |  |  |  |  |  |
| CO[C@@]1(NC(=O)C(C(=O)O)c2ccc(O)cc2)C(=O)N2C(C(=O)O)=C(CSc3nnnn3C)CO[C@@H]21 (stereo partly drawn) [6059-S Compound, 7β-(α-p-hydroxyphenyl-α-carboxyacetoamido)-7α-methoxy-3-[(1-methyl-1H-tetrazole-5-yl)thiomethyl]-1-oxadethia-3-cephem-4-carboxylic acid, reference compound] |  |  | 0.05 µg/mL (≈ 0.0961 µM) | 0.1 µg/mL (≈ 0.192 µM) | 3.13 µg/mL (≈ 6.01 µM) | 0.39 µg/mL (≈ 0.749 µM) | 25 µg/mL (≈ 48 µM) | 6.25 µg/mL (≈ 12 µM) | 6.25 µg/mL (≈ 12 µM) | 0.1 µg/mL (≈ 0.192 µM) | 0.39 µg/mL (≈ 0.749 µM) | 0.1 µg/mL (≈ 0.192 µM) | 0.2 µg/mL (≈ 0.384 µM) | 0.39 µg/mL (≈ 0.749 µM) | 0.16 mg/mouse | 0.39 µg/mL (≈ 0.749 µM) | 0.2 µg/mL (≈ 0.384 µM) | 6.25 µg/mL (≈ 12 µM) |  |
| CO[C@@]1(NC(=O)CSC[C@@H](N)C(=O)O)C(=O)N2C(C(=O)O)=C(CSc3nnnn3C)CO[C@@H]21 [Example 1, 7β-[(2D-2-amino-2-carboxy)ethylthioacetoamido]-7α-methoxy-3-[(1-methyl-1H-tetrazol-5-yl)thiomethyl]-1-oxadethia-3-cephem-4-carboxylic acid sodium salt] | 0.39 µg/mL | 0.39 µg/mL | ≤ 0.025 µg/mL | 0.78 µg/mL |  | 0.78 µg/mL | 1.56 µg/mL | 1.56 µg/mL | 3.13 µg/mL | 0.2 µg/mL | 0.2 µg/mL | 0.39 µg/mL | 0.39 µg/mL | 0.39 µg/mL | 0.03 mg/mouse | 0.78 µg/mL | 0.39 µg/mL | 3.13 µg/mL | 12.5 µg/mL |
| Cn1nnnc1SCC1=C(C(=O)O)N2C(=O)[C@@H](NC(=O)CSC[C@@H](N)C(=O)O)[C@H]2OC1 [Example 2, 7β-[(2D-2-Amino-2-carboxy)ethylthioacetoamido]-3-[(1-methyl-1H-tetrazol-5-yl)thiomethyl]-1-oxadethia-3-cephem-4-carboxylic acid sodium salt] | 0.39 µg/mL | 3.13 µg/mL |  |  |  |  |  |  |  |  |  |  |  |  | 0.05 mg/mouse |  |  |  |  |
| CO[C@@]1(NC(=O)Cc2cccs2)C(=O)N2C(C(=O)O)=C(COC(N)=O)CS[C@@H]21 [Cefoxitin, reference compound] |  |  |  |  |  |  |  |  |  |  |  |  |  |  | 0.50 mg/mouse |  |  |  |  |
